In patent publication US9585388B2, “Synergistically acting ternary antimicrobial mixtures” (SYMRISE AG, priority 2011, dated 2017):

Tested on: Aspergillus niger ATCC 16404
Experiment: Test for adequate preservation (European Pharmacopoeia) in O/W emulsion, CFU reduction
Type: cell-based
Settings: total concentration used 1 wt % in O/W emulsion, pH 5.5, initial CFU 1200000
Description: In case of doubt, antimicrobial efficacy in the sense of this text is present when adequate preservation is established according to the European Pharmacopoeia (ISBN 3-7692-2768-9; Supplement 2001 to the 3rd Edition, page 421-422, chapter 5.1.3). The microbe preferably to be used is preferably Aspergillus niger ATCC16404. For further information on the procedure for testing for antimicrobial efficacy, reference is made in particular to example 1 given below.
Synergistic intensification (of antimicrobial action) is present when the synergy index (SI value) of the test mixture according to Kull (literature: F. C. Kull et al., Applied Microbiology Vol. 9, p. 538-541 (1961); D. C. Steinberg, Cosmetics & Toiletries Vol. 115(11), 59-62 (2000)) gives a value <1. For further information on calculation of the synergy index, reference is again made to example 1 given below. Once again, the microbe preferably to be used for determining the synergy index is the strain of Aspergillus niger stated above.
The test for adequate preservation was carried out according to the European Pharmacopoeia. […]
To determine the potentially synergistically intensified efficacy of ternary mixtures containing 2-phenoxyethanol, 1,2-decanediol and 1,2-hexanediol, the CFU-reducing properties were determined according to the test procedure described in example 1 for the individual substances, for various binary mixtures and for ternary mixtures according to the invention.
The synergy index (SI values) of the ternary mixtures according to the invention and binary mixtures not according to the invention according to Kull (literature: F. C. Kull et al., Applied Microbiology Vol. 9, p. 538-541 (1961); D. C. Steinberg, Cosmetics & Toiletries Vol. 115(11), 59-62 (2000) was calculated using the following equations. SI=Z*D/A+Z*E/B Binary mixtures: SI=Z*D/A+Z*E/B+Z*F/C Ternary mixture: wherein: D, E, F: factor of proportion of the individual constituents (e.g. 70 wt %=factor 0.70) A, B, C: CFU of the individual substances at time point 48 h Z: CFU of the binary/ternary mixture at time point 48 h […]

SMILES	Aspergillus niger CFU after 48 h [CFU]
OCCOc1ccccc1 [product A, 2-phenoxyethanol]	1100000
CCCCCCCCC(O)CO (stereo not drawn) [product B, 1,2-decanediol]	1200000
CCCCC(O)CO (stereo not drawn) [product C, 1,2-hexanediol]	1000000
